Data published in US20070037828A1, “Pyrazolopyrimidines” (priority 2003, published 2007).
Where two headings read alike, the source gives them in different places.

Test: logP determination through HPLC (EEC directive 79/831 Annex V. A8)
Format: physicochemical
[1] = HPLC, gradient method, acetonitrile/0.1% aqueous phosphoric acid

Row | logP | logP [1] | Compound | also measured
1 | 6.19 |  | N#Cc1cnn2c(N3CCCCC3)c(-c3cc(Cl)sc3Cl)c(Cl)nc12 [Example 23] | 
2 |  | 3.21 | N#Cc1cnn2c(NCC(F)(F)F)c(-c3ccsc3)c(Cl)nc12 [Example 8] | 
3 |  | 4.51 | CCCN(CC1CC1)c1c(-c2ccsc2)c(Cl)nc2c(C#N)cnn12 [Example 47] | 
4 |  | 3.58 | N#Cc1cnn2c(N3CCCCC3)c(-c3ccsc3)c(Cl)nc12 [Example 49] | 
5 |  | 4.13 | CC(C)CN(C)c1c(-c2ccsc2)c(Cl)nc2c(C#N)cnn12 [Example 40] | 
6 |  | 3.17 | COCCN(C)c1c(-c2ccsc2)c(Cl)nc2c(C#N)cnn12 [Example 51] | 
7 |  | 3.00 | N#Cc1cnn2c(NC3CCCC3)c(-c3ccsc3)c(Cl)nc12 [Example 33] | 
8 |  | 3.53 | CC1CN(c2c(-c3ccsc3)c(Cl)nc3c(C#N)cnn23)CC(C)O1 (stereo not shown) [Example 48] | 
9 | 3.61 |  | N#Cc1cnn2c(N3CCC(F)(F)CC3)c(-c3ccsc3)c(Cl)nc12 [Example 36] | 
10 |  | 2.94 | COCCNc1c(-c2ccsc2)c(Cl)nc2c(C#N)cnn12 [Example 45] | 
11 | 5.78 |  | CCCN(CC1CC1)c1c(-c2cc(Cl)sc2Cl)c(Cl)nc2c(C#N)cnn12 [Example 20] | 
12 | 4.72 |  | CC1CN(c2c(-c3cc(Cl)sc3Cl)c(Cl)nc3c(C#N)cnn23)CC(C)O1 (stereo not shown) [Example 27] | 
13 |  | 4.41 | CC1CCN(c2c(-c3ccsc3)c(Cl)nc3c(C#N)cnn23)CC1 [Example 43] | 
14 | 3.85 |  | N#Cc1cnn2c(N3CCOCC3)c(-c3cc(Cl)sc3Cl)c(Cl)nc12 [Example 28] | 
15 |  | 2.98 | CCN(CCC#N)c1c(-c2ccsc2)c(Cl)nc2c(C#N)cnn12 [Example 52] | 
16 |  | 4.18 | CC(C)(C)CNc1c(-c2ccsc2)c(Cl)nc2c(C#N)cnn12 [Example 32] | 
17 | 3.20 |  | CC1CCN(c2c(-c3ncncc3F)c(Cl)nc3c(C#N)cnn23)CC1 [Example 63] | 
18 | 3.54 |  | CC(Nc1c(-c2ncncc2Cl)c(Cl)nc2c(C#N)cnn12)C(C)(C)C (stereo not shown) [Example 3] | 
19 |  | 3.74 | CCC(C)Nc1c(-c2ccsc2)c(Cl)nc2c(C#N)cnn12 (stereo not shown) [Example 38] | 
20 |  | 4.08 | CC(C)C(C)Nc1c(-c2ccsc2)c(Cl)nc2c(C#N)cnn12 (stereo not shown) [Example 34] | 
21 |  | 3.53 | N#Cc1cnn2c(N3CCCC3)c(-c3ccsc3)c(Cl)nc12 [Example 41] | 
22 |  | 4.27 | CC1CCCCN1c1c(-c2ccsc2)c(Cl)nc2c(C#N)cnn12 (stereo not shown) [Example 42] | 
23 |  | 3.37 | CC(C)Nc1c(-c2ccsc2)c(Cl)nc2c(C#N)cnn12 [Example 39] | 
24 | 3.29 |  | CC(Nc1c(-c2ncncc2F)c(Cl)nc2c(C#N)cnn12)C(C)(C)C (stereo not shown) [Example 56] | 
25 | 4.82 |  | CC(C)CNc1c(-c2cc(Cl)sc2Cl)c(Cl)nc2c(C#N)cnn12 [Example 9] | 
26 | 4.03 |  | N#Cc1cnn2c(N3CCC(C(F)(F)F)CC3)c(-c3ccsc3)c(Cl)nc12 [Example 53] | 
27 | 4.61 |  | N#Cc1cnn2c(N3CCCC3)c(-c3cc(Cl)sc3Cl)c(Cl)nc12 [Example 21] | 
28 |  | 2.90 | N#Cc1cnn2c(N3CCOCC3)c(-c3ccsc3)c(Cl)nc12 [Example 44] | 
29 |  | 4.46 | CC(C)CC(C)Nc1c(-c2ccsc2)c(Cl)nc2c(C#N)cnn12 (stereo not shown) [Example 6] | 
30 |  | 3.78 | CC(C)CNc1c(-c2ccsc2)c(Cl)nc2c(C#N)cnn12 [Example 37] | 

Continued, molecule first:

Row | Compound | logP | logP [1] | also measured
31 | CC(Nc1c(-c2ccsc2)c(Cl)nc2c(C#N)cnn12)C(F)(F)F (stereo not shown) [Example 7] |  | 3.53 | 
32 | CC1CCCN1c1c(-c2ncncc2Cl)c(Cl)nc2c(C=O)cnn12 (stereo not shown) [Example 54] | 2.44 |  | 
33 | COCCN(C)c1c(-c2cc(Cl)sc2Cl)c(Cl)nc2c(C#N)cnn12 [Example 18] | 4.32 |  | 
34 | CC(Nc1c(-c2ncncc2F)c(Cl)nc2c(C#N)cnn12)C(F)(F)F (stereo not shown) [Example 58] | 2.65 |  | 
35 | N#Cc1cnn2c(O)c(-c3ncccc3C(F)(F)F)c(O)nc12 [Example 68, 3-cyano-6-(3-trifluoromethyl-pyridin-2-yl)-pyrazolo[1,5-a]pyrimidin-5,7-diol] |  |  | chromatographic logP [1]: 0.29
36 | CC(Nc1c(-c2ncncc2F)c(Cl)nc2ccnn12)C(C)(C)C (stereo not shown) [Example 60] | 3.42 |  | 
37 | COCCNc1c(-c2cc(Cl)sc2Cl)c(Cl)nc2c(C#N)cnn12 [Example 17] | 3.90 |  | 
38 | CC(Nc1c(-c2ncncc2Cl)c(Cl)nc2c(Cl)cnn12)C(C)(C)C (stereo not shown) [Example 5] | 4.36 |  | 
39 | CC(C)C(C)Nc1c(-c2cc(Cl)sc2Cl)c(Cl)nc2c(C#N)cnn12 (stereo not shown) [Example 24] | 5.19 |  | 
40 | CC(C)C(C)Nc1c(-c2ncncc2F)c(Cl)nc2ccnn12 (stereo not shown) [Example 61] | 2.98 |  | 
41 | CC(C)CC(C)Nc1c(-c2cc(Cl)sc2Cl)c(Cl)nc2c(C#N)cnn12 (stereo not shown) [Example 29] | 5.59 |  | 
42 | CC1CCN(c2c(-c3ncncc3Cl)c(Cl)nc3c(C=O)cnn23)CC1 [Example 74, 5-chloro-6-(5-chloro-pyrimidin-4-yl)-3-formyl-7-(4-methyl-piperidin-1-yl)-pyrazolo[1,5-a]-pyrimidine] |  |  | chromatographic logP [1]: 3.04
43 | CCC(C)Nc1c(-c2cc(Cl)sc2Cl)c(Cl)nc2c(C#N)cnn12 (stereo not shown) [Example 10] | 4.82 |  | 
44 | CC(Nc1c(-c2cc(Cl)sc2Cl)c(Cl)nc2c(C#N)cnn12)C(F)(F)F (single isomer, unassigned) [Example 31] | 4.46 |  | 
45 | CC(C)C(C)Nc1c(-c2ncncc2Cl)c(Cl)nc2c(C#N)cnn12 (stereo not shown) [Example 4] | 3.13 |  | 
46 | CC(Nc1c(-c2ncncc2F)c(Cl)nc2c(Cl)cnn12)C(C)(C)C (stereo not shown) [Example 59] | 4.11 |  | 
47 | CC(C)(C)CNc1c(-c2cc(Cl)sc2Cl)c(Cl)nc2c(C#N)cnn12 [Example 15] | 5.31 |  | 
48 | CC(C)CN(C)c1c(-c2cc(Cl)sc2Cl)c(Cl)nc2c(C#N)cnn12 [Example 12] | 5.31 |  | 
49 | CC(C)C(C)Nc1c(-c2ncncc2F)c(Cl)nc2c(C#N)cnn12 (stereo not shown) [Example 57] | 2.92 |  | 
50 | N#Cc1cnn2c(Cl)c(-c3ncccc3C(F)(F)F)c(Cl)nc12 [Example 65, 3-cyano-5,7-dichloro-6-(3-trifluoromethyl-pyridin-2-yl)-pyrazolo-[1,5-a]pyrimidine] |  |  | chromatographic logP [1]: 2.68
51 | CN(CCC#N)c1c(-c2cc(Cl)sc2Cl)c(Cl)nc2c(C#N)cnn12 [Example 19] | 3.90 |  | 
52 | N#Cc1cnn2c(NCC(F)(F)F)c(-c3cc(Cl)sc3Cl)c(Cl)nc12 [Example 30] | 4.06 |  | 
53 | C=Cc1cnn2c(N3CCC(C)CC3)c(-c3ncncc3Cl)c(Cl)nc12 [Example 75] |  |  | chromatographic logP [1]: 4.7
54 | COC(=O)c1cnn2c(NC(C)C(C)(C)C)c(-c3ncncc3F)c(Cl)nc12 (stereo not shown) [Example 64] | 3.15 |  | 
55 | CC(Nc1c(-c2ncncc2Cl)c(Cl)nc2c(C=O)cnn12)C(F)(F)F (single isomer, unassigned) [Example 55] | 2.46 |  | 
56 | CC(Nc1c(-c2ncncc2Cl)c(Cl)nc2c(C=O)cnn12)C(C)(C)C (stereo not shown) [Example 62] | 3.12 |  | 
57 | CC(C)Nc1c(-c2cc(Cl)sc2Cl)c(Cl)nc2c(C#N)cnn12 [Example 11] | 4.41 |  | 
58 | N#Cc1cnn2c(NC3CCCC3)c(-c3cc(Cl)sc3Cl)c(Cl)nc12 [Example 16] |  | 5.03 | 
